Experimental data from ChEMBL document CHEMBL1201862, “PubChem BioAssay data set” (2004).
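Following 48 hours of exposure in 96-well plates, responses at five concentrations were used to interpolate endpoints linearly. GI50: concentration for 50% inhibition of growth.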 Activity calls are given as the source filed them. Cut-off read from the data, not from the text of the source: active = GI50 up to about 1.1 µM and inactive = higher.

Tests used:
Test in all cases: DTP human tumour cell line panel, 48 h
[1] = tested on: SK-MEL-5
[2] = tested on: EKVX
[3] = tested on: A549
[4] = tested on: HT-29
[5] = tested on: CAKI-1
[6] = tested on: MDA-MB-231
[7] = tested on: OVCAR-8
[8] = tested on: HOP-92
[9] = tested on: M14
[10] = tested on: SW-620
[11] = tested on: MCF7
[12] = tested on: 786-0
[13] = tested on: MDA-MB-435
[14] = tested on: SK-MEL-28
[15] = tested on: UACC-62
[16] = tested on: KM12
[17] = tested on: CCRF-CEM
[18] = tested on: RPMI-8226
[19] = tested on: NCI-H522

Row | Compound | GI50 [1] | GI50 [2] | GI50 [3] | GI50 [4] | GI50 [5] | GI50 [6] | GI50 [7] | GI50 [8] | GI50 [9] | GI50 [10] | GI50 [11] | GI50 [12] | GI50 [13] | GI50 [14] | GI50 [15] | GI50 [16] | GI50 [17] | GI50 [18] | GI50 [19]
1 | CC(CO)C1C[C@H](O)[C@@]2(C)CC(=O)C=C(CO)[C@@H]2C1 (stereo partly specified) | > 100 µM (inactive) | > 100 µM (inactive) | > 100 µM (inactive) | > 100 µM (inactive) | > 100 µM (inactive) | > 100 µM (inactive) | > 100 µM (inactive) | > 100 µM (inactive) | > 100 µM (inactive) | > 100 µM (inactive) | > 100 µM (inactive) | > 100 µM (inactive) | > 100 µM (inactive) | > 100 µM (inactive) | > 100 µM (inactive) | > 100 µM (inactive) |  |  | 
2 | CCN(CC)CCC(=O)c1ccc(Oc2ccccc2)cc1 |  | 20.8 µM (inactive) | > 100 µM (inactive) | 19.1 µM (inactive) | 16.7 µM (inactive) | 20.7 µM (inactive) | 39.7 µM (inactive) | 15.8 µM (inactive) | 38.1 µM (inactive) | 17.1 µM (inactive) | 17.9 µM (inactive) | 15.6 µM (inactive) | 20.7 µM (inactive) | 17.5 µM (inactive) | 15.9 µM (inactive) | 13.1 µM (inactive) | 22.1 µM (inactive) | 5.79 µM (inactive) | 
3 | O=C(NN=C1NCCN1)c1ccco1 | > 100 µM (inactive) | > 100 µM (inactive) | > 100 µM (inactive) | > 100 µM (inactive) |  | > 100 µM (inactive) | > 100 µM (inactive) | > 100 µM (inactive) | > 100 µM (inactive) | > 100 µM (inactive) | > 100 µM (inactive) | > 100 µM (inactive) | > 100 µM (inactive) | > 100 µM (inactive) | > 100 µM (inactive) | > 100 µM (inactive) | > 100 µM (inactive) | > 100 µM (inactive) | > 100 µM (inactive)
4 | CC1OC1P(=O)(O)O (stereo unspecified) | > 100 µM (inactive) | > 100 µM (inactive) | > 100 µM (inactive) | > 100 µM (inactive) | > 100 µM (inactive) | > 100 µM (inactive) | > 100 µM (inactive) | > 100 µM (inactive) |  | > 100 µM (inactive) | > 100 µM (inactive) | > 100 µM (inactive) | > 100 µM (inactive) | > 100 µM (inactive) | > 100 µM (inactive) | > 100 µM (inactive) | 27.5 µM (inactive) | 28 µM (inactive) | 
5 | Cc1ccc(C2=CC(=O)OC(C[P+](c3ccccc3)(c3ccccc3)c3ccccc3)(c3ccccc3)O2)cc1 (stereo unspecified) | 15.4 µM (inactive) | 15.3 µM (inactive) | 15.8 µM (inactive) | 14.7 µM (inactive) | 15.4 µM (inactive) | 28.5 µM (inactive) | 24.5 µM (inactive) |  | 17 µM (inactive) |  | 21.1 µM (inactive) | 19.3 µM (inactive) | 16.2 µM (inactive) | 19 µM (inactive) | 14.8 µM (inactive) | 17.7 µM (inactive) | 16.8 µM (inactive) | 17.5 µM (inactive) | 12 µM (inactive)
6 | COC(=O)C1CC(C=[N+](C)C)=C(SC)N1C(=O)OCc1ccccc1 (stereo unspecified) | > 100 µM (inactive) | > 100 µM (inactive) | > 100 µM (inactive) | > 100 µM (inactive) | > 100 µM (inactive) | > 100 µM (inactive) | > 100 µM (inactive) | > 100 µM (inactive) | > 100 µM (inactive) | > 100 µM (inactive) | 95.9 µM (inactive) | > 100 µM (inactive) | > 100 µM (inactive) | > 100 µM (inactive) | > 100 µM (inactive) | > 100 µM (inactive) |  | > 100 µM (inactive) | > 100 µM (inactive)
7 | Cc1ccc([S+]([O-])CC(CF)OCn2cc(C)c(=O)[nH]c2=O)cc1 (stereo unspecified) | > 100 µM (inactive) |  | > 100 µM (inactive) |  | > 100 µM (inactive) | > 100 µM (inactive) | > 100 µM (inactive) | > 100 µM (inactive) | > 100 µM (inactive) | > 100 µM (inactive) | > 100 µM (inactive) | > 100 µM (inactive) | > 100 µM (inactive) | > 100 µM (inactive) | > 100 µM (inactive) | > 100 µM (inactive) |  | > 100 µM (inactive) | > 100 µM (inactive)
8 | N#CC(C#N)=C1CCCS(=O)(=O)c2ccccc21 |  | > 100 µM (inactive) | > 100 µM (inactive) | > 100 µM (inactive) | > 100 µM (inactive) | > 100 µM (inactive) | > 100 µM (inactive) | > 100 µM (inactive) | > 100 µM (inactive) | > 100 µM (inactive) | > 100 µM (inactive) | > 100 µM (inactive) | > 100 µM (inactive) | > 100 µM (inactive) | > 100 µM (inactive) | > 100 µM (inactive) | > 100 µM (inactive) | > 100 µM (inactive) | 
9 | CC(C)=C[C@H]1CCC2(OCCO2)[C@]1(C)CO | > 100 µM (inactive) | 58.7 µM (inactive) | > 100 µM (inactive) |  | > 100 µM (inactive) | > 100 µM (inactive) | > 100 µM (inactive) |  | > 100 µM (inactive) | > 100 µM (inactive) | > 100 µM (inactive) | > 100 µM (inactive) | > 100 µM (inactive) | > 100 µM (inactive) |  | > 100 µM (inactive) | > 100 µM (inactive) | > 100 µM (inactive) | > 100 µM (inactive)
10 | Nc1nc2cc(CNc3ccc(C(=O)NC(CCC(=O)O)C(=O)O)cc3)ccc2nc1-c1ccccc1 (stereo unspecified) | > 10 µM (inactive) | > 10 µM (inactive) | > 10 µM (inactive) | > 10 µM (inactive) | > 10 µM (inactive) | > 10 µM (inactive) | > 10 µM (inactive) |  | > 10 µM (inactive) | > 10 µM (inactive) | > 10 µM (inactive) | > 10 µM (inactive) | > 10 µM (inactive) | > 10 µM (inactive) | > 10 µM (inactive) | > 10 µM (inactive) | > 10 µM (inactive) | > 10 µM (inactive) | > 10 µM (inactive)
11 | COc1ccc(-n2c(C)nc3ccc(NC(=S)Nc4ccccc4)cc3c2=O)cc1 | 37.4 µM (inactive) | 65.2 µM (inactive) |  | 62.4 µM (inactive) | > 100 µM (inactive) | > 100 µM (inactive) | > 100 µM (inactive) |  |  | > 100 µM (inactive) | 43.2 µM (inactive) | > 100 µM (inactive) | 61.5 µM (inactive) | 96.2 µM (inactive) | 61.4 µM (inactive) | 72.3 µM (inactive) |  | 28.6 µM (inactive) | 56.8 µM (inactive)
12 | C=C1CCC2CC1C(C(=O)c1c[nH]c3ccccc13)=NC2(C)C (stereo unspecified) | > 100 µM (inactive) | 77.3 µM (inactive) | > 100 µM (inactive) | > 100 µM (inactive) | > 100 µM (inactive) | > 100 µM (inactive) | > 100 µM (inactive) |  | > 100 µM (inactive) | > 100 µM (inactive) | > 100 µM (inactive) | > 100 µM (inactive) | > 100 µM (inactive) | > 100 µM (inactive) | > 100 µM (inactive) | > 100 µM (inactive) | > 100 µM (inactive) | 91 µM (inactive) | > 100 µM (inactive)
13 | Cc1cc(N(CCC#N)CCC#N)ccc1C(/N=N\c1ccc([N+](=O)[O-])cc1)=N\NC(=O)c1cc(Cl)ccc1O | 30.6 µM (inactive) | 24.3 µM (inactive) | 38.6 µM (inactive) | 29.4 µM (inactive) | 40.7 µM (inactive) | 30.3 µM (inactive) | 19.8 µM (inactive) |  | 42 µM (inactive) |  | 22.6 µM (inactive) | 47.8 µM (inactive) | 64.9 µM (inactive) |  | 22.9 µM (inactive) | 27.7 µM (inactive) | 25.1 µM (inactive) | > 100 µM (inactive) | 9.35 µM (inactive)
14 | CCOC(=O)C(NC(=O)C(CCCCNP(=O)(OCC)OCC)NC(=O)C(C)NC(C)=O)C(C)C (stereo unspecified) | > 100 µM (inactive) | > 100 µM (inactive) | > 100 µM (inactive) | > 100 µM (inactive) | > 100 µM (inactive) | > 100 µM (inactive) | > 100 µM (inactive) | > 100 µM (inactive) | > 100 µM (inactive) | > 100 µM (inactive) | > 100 µM (inactive) | > 100 µM (inactive) | > 100 µM (inactive) | > 100 µM (inactive) |  | > 100 µM (inactive) | > 100 µM (inactive) | > 100 µM (inactive) | 
15 | O=C1c2ccccc2C(=O)N1NC1=NCCN1 | > 100 µM (inactive) | > 100 µM (inactive) | > 100 µM (inactive) | > 100 µM (inactive) | > 100 µM (inactive) | > 100 µM (inactive) | > 100 µM (inactive) |  | > 100 µM (inactive) | > 100 µM (inactive) | > 100 µM (inactive) | > 100 µM (inactive) | > 100 µM (inactive) | > 100 µM (inactive) | > 100 µM (inactive) | > 100 µM (inactive) | > 100 µM (inactive) | > 100 µM (inactive) | > 100 µM (inactive)
16 | CC(=O)OCCCCn1nncc1Cn1ccc(=O)n(Cc2cnnn2CCCCOC(C)=O)c1=O | > 100 µM (inactive) | > 100 µM (inactive) | > 100 µM (inactive) |  | > 100 µM (inactive) | > 100 µM (inactive) | > 100 µM (inactive) | > 100 µM (inactive) | > 100 µM (inactive) | > 100 µM (inactive) | > 100 µM (inactive) | > 100 µM (inactive) | > 100 µM (inactive) | > 100 µM (inactive) | > 10 µM (inactive) | > 100 µM (inactive) | 0.385 µM (active) | > 100 µM (inactive) | 
